Measured values taken from US20160130278A1 (TAISHO PHARMACEUTICAL CO., LTD, priority 2013, published 2016).

Target: T1, human type 1 glycine transporter (GlyT1) (Homo sapiens, UniProt P48067)
T1 construct: T98G cells (glioma cells) expressing human type 1 glycine transporter (GlyT1) were used
T1 sequence (P48067 1-706): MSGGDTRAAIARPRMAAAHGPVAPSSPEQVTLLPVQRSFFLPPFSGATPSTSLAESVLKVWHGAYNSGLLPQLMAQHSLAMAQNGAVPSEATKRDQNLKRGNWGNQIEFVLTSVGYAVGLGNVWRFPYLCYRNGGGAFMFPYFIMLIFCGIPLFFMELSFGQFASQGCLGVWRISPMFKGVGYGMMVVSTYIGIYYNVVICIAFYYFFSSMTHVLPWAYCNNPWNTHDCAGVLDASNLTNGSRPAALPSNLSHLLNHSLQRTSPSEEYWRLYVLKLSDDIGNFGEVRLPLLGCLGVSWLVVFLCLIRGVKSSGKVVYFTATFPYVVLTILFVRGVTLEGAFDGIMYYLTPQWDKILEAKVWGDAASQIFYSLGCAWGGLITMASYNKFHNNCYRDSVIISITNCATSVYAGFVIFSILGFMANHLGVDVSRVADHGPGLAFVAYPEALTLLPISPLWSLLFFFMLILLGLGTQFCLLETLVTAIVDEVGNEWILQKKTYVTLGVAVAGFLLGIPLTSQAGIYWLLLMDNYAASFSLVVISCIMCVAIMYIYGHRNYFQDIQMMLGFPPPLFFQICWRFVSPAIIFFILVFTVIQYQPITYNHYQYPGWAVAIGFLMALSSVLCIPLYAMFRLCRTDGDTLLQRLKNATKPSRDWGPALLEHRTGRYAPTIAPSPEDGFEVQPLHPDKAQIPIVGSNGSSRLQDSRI
Experiment: Glycine uptake inhibition experiment ([3H]glycine uptake)
Type: cell-based
Settings: GlyT1
Summary of the method: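 T98G glioma cells expressing human GlyT1 were pretreated 10 min with compound in HEPES buffer pH 7.4 (0.2% BSA), then incubated with compound plus 250 nM final [3H]glycine for 15 min at room temperature. Intracellular radioactivity was counted after NaOH lysis; 10 μM ALX5407 defined non-specific uptake. IC50 came from 10^−9–10^−5 M curves.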

| Compound | IC50 |
| --- | --- |
| CCn1cc(-c2cccc(C(NC(=O)c3cccc(C)c3Cl)C3(O)CCC(F)(F)CC3)c2)cn1 (single isomer, unassigned) [Compound 151, 2-chloro-N-{(4,4-difluoro-1-hydroxycyclohexyl)[3-(1-ethyl-1H-pyrazol-4-yl)phenyl]methyl}-3-methylbenzamide] | 3300 nM |
| O=C(NC(c1cccc(-c2cncnc2)c1)C1(O)CCCC1)c1cccc(C(F)(F)F)c1Cl (centres unmarked) [Compound 7, 2-chloro-N-{(1-hydroxycyclopentyl)[3-(pyrimidin-5-yl)phenyl]methyl}-3-(trifluoromethyl)benzamide] | 290 nM |
| CCn1cc(-c2cccc(C(NC(=O)c3c(Cl)cccc3Cl)C3(O)CCC(F)(F)CC3)c2)cn1 (centres unmarked) [Compound 174, 2,6-dichloro-N-{(4,4-difluoro-1-hydroxycyclohexyl)[3-(1-ethyl-1H-pyrazol-4-yl)phenyl]methyl}benzamide] | 1100 nM |
| O=C(NC(c1cccc(F)c1)C1(O)CCCC1)c1cccc(C(F)(F)F)c1Cl (single isomer, unassigned) [Compound 73, 2-chloro-N-[(3-fluorophenyl)(1-hydroxycyclopentyl)methyl]-3-(trifluoromethyl)benzamide] | 220 nM |
| O=C(NC(c1ncccc1Cl)C1(O)CCC(F)(F)CC1)c1nccc(C(F)(F)F)c1Cl (single isomer, unassigned) [Compound 318, 3-chloro-N-[(3-chloropyridin-2-yl)(4,4-difluoro-1-hydroxycyclohexyl)methyl]-4-(trifluoromethyl)pyridine-2-carboxamide] | 240 nM |
| CCn1cc(-c2cccc(C(NC(=O)c3cccc(C(F)(F)F)c3Cl)C3(O)CCC(F)(F)CC3)c2)cn1 (single isomer, unassigned) [Compound 122, 2-chloro-N-{(4,4-difluoro-1-hydroxycyclohexyl)[3-(1-ethyl-1H-pyrazol-4-yl)phenyl]methyl}-3-(trifluoromethyl)benzamide] | 220 nM |
| O=C(NC(c1ccc(F)cc1)C1(O)CCCC1)c1nccc(C(F)(F)F)c1Cl (single isomer, unassigned) [Compound 59, 3-chloro-N-[(4-fluorophenyl)(1-hydroxycyclopentyl)methyl]-4-(trifluoromethyl)pyridine-2-carboxamide] | 9500 nM |
| O=C(NC(c1cc(Cl)ccc1Cl)C1(O)CCCC1)c1nccc(C(F)(F)F)c1Cl (centres unmarked) [Compound 108, 3-chloro-N-[(2,5-dichlorophenyl)(1-hydroxycyclopentyl)methyl]-4-(trifluoromethyl)pyridine-2-carboxamide] | 68 nM |
| O=C(NC(c1cccc(Br)c1)C1(O)CCCCC1)c1nccc(C(F)(F)F)c1Cl (single isomer, unassigned) [Compound 43, N-[(3-bromophenyl)(1-hydroxycyclohexyl)methyl]-3-chloro-4-(trifluoromethyl)pyridine-2-carboxamide] | 1400 nM |
| O=C(NC(c1cccc(F)c1Cl)[C@]1(O)CC[C@@H](F)CC1)c1cnc(Cl)cc1-n1nccn1 (single isomer, unassigned) [Compound 369, 6-chloro-N-[(2-chloro-3-fluorophenyl)(cis-4-fluoro-1-hydroxycyclohexyl)methyl]-4-(2H-1,2,3-triazol-2-yl)pyridine-3-carboxamide] | 1200 nM |
| O=C(N[C@@H](c1cccc(-c2ccccn2)c1)C1(O)CCCC1)c1nccc(C(F)(F)F)c1Cl [Compound 35, 3-chloro-N-{(S)-(1-hydroxycyclopentyl)[3-(pyridin-2-yl)phenyl]methyl}-4-(trifluoromethyl)pyridine-2-carboxamide] | 74 nM |
| CC(=O)c1ccc(-c2cccc(C(NC(=O)c3cccc(C(F)(F)F)c3Cl)C3(O)CCCC3)c2)cc1 (centres unmarked) [Compound 6, N-[(4′-acetylbiphenyl-3-yl)(1-hydroxycyclopentyl)methyl]-2-chloro-3-(trifluoromethyl)benzamide] | 670 nM |
| O=C(NC(c1cccc(Cl)n1)[C@]1(O)CC[C@@H](F)CC1)c1ccnc(C(F)(F)F)c1Cl (single isomer, unassigned) [Compound 338, 3-chloro-N-[(6-chloropyridin-2-yl)(cis-4-fluoro-1-hydroxycyclohexyl)methyl]-2-(trifluoromethyl)pyridine-4-carboxamide] | 96 nM |

Second part, the molecule after the results:

| IC50 | Compound |
| --- | --- |
| 92 nM | O=C(NC(c1cccc(-c2cncnc2)c1)C1(O)CCCC1)c1nccc(C(F)(F)F)c1Cl (centres unmarked) [Compound 18, 3-chloro-N-{(1-hydroxycyclopentyl)[3-(pyrimidin-5-yl)phenyl]methyl}-4-(trifluoromethyl)pyridine-2-carboxamide] |
| 830 nM | CCn1cc(-c2cccc(C(NC(=O)c3cc(Cl)ccc3Cl)C3(O)CCC(F)(F)CC3)c2)cn1 (single isomer, unassigned) [Compound 193, 2,5-dichloro-N-{(4,4-difluroo-1-hydroxycyclohexyl)[3-(1-ethyl-1H-pyrazol-4-yl)phenyl]methyl}benzamide] |
| 130 nM | O=C(NC(c1cccc(F)c1Cl)C1(O)CCC(F)(F)CC1)c1ccnc(C(F)(F)F)c1Cl (single isomer, unassigned) [Compound 178, 3-chloro-N-[(2-chloro-3-fluorophenyl)(4,4-difluoro-1-hydroxycyclohexyl)methyl]-2-(trifluoromethyl)pyridine-4-carboxamide] |
| 64 nM | O=C(NC(c1cccc(Cl)c1F)C1(O)CCC(F)CC1)c1nccc(C(F)(F)F)c1Cl (single isomer, unassigned) [Compound 200, 3-chloro-N-[(3-chloro-2-fluorophenyl)(4-fluoro-1-hydroxycyclohexyl)methyl}-4-(trifluoromethyl)pyridine-2-carboxamide] |
| 41 nM | CS(=O)(=O)c1ccc(C(F)(F)F)cc1C(=O)NC(c1cccc(F)c1Cl)[C@]1(O)CC[C@@H](F)CC1 (single isomer, unassigned) [Compound 372, N-[(2-chloro-3-fluorophenyl)(cis-4-fluoro-1-hydroxycyclohexyl)methyl]-2-(methylsulfonyl)-5-(trifluoromethyl)benzamide] |
| 1200 nM | O=C(NC(c1cccc(F)c1Cl)[C@]1(O)CC[C@@H](F)CC1)c1cc(C(F)(F)F)ccc1-n1nccn1 (single isomer, unassigned) [Compound 381, N-[-(2-chloro-3-fluorophenyl)(cis-4-fluoro-1-hydroxycyclohexyl)methyl]-2-(2H-1,2,3-triazol-2-yl)-5-(trifluoromethyl)benzamide] |
| 760 nM | O=C(NC(c1ccc(F)cc1)C1(O)CCCC1)c1nccc(C(F)(F)F)c1Cl (single isomer, unassigned) [Compound 58, 3-chloro-N-[(4-fluorophenyl)(1-hydroxycyclopentyl)methyl]-4-(trifluoromethyl)pyridine-2-carboxamide] |
| 2800 nM | O=C(NC(c1cccc(F)c1Cl)[C@]1(O)CC[C@@H](F)CC1)c1ccccc1C1CC1 (single isomer, unassigned) [Compound 365, N-[(2-chloro-3-fluorophenyl)(cis-4-fluoro-1-hydroxycyclohexyl)methyl]-2-cyclopropylbenzamide] |
| 5800 nM | O=C(NC(c1cccc(F)c1Cl)[C@]1(O)CC[C@@H](F)CC1)c1ncc(Cl)cc1C(F)(F)F (single isomer, unassigned) [Compound 316, 5-chloro-N-[(2-chloro-3-fluorophenyl)(cis-4-fluoro-1-hydroxycyclohexyl)methyl]-3-(trifluoromethyl)pyridine-2-carboxamide] |
| 120 nM | O=C(NC(c1cccc(F)c1Cl)[C@]1(O)CC[C@@H](F)CC1)c1nccc2ccccc12 (single isomer, unassigned) [Compound 255, N-[(2-chloro-3-fluorophenyl)(cis-4-fluoro-1-hydroxycyclohexyl)methyl]isoquinoline-1-carboxamidea] |
| 830 nM | CCn1cc(-c2cccc(C(NC(=O)c3nccc(C(F)(F)F)c3Cl)C3(O)CCCC3)c2)cn1 (single isomer, unassigned) [Compound 13, 3-chloro-N-{[3-(1-ethyl-1H-pyrazol-4-yl)phenyl](1-hydroxycyclopentyl)methyl}-4-(trilfuoromethyl)pyridine-2-carboxamide] |
| 420 nM | O=C(NC(c1cccc(F)c1Cl)[C@]1(O)CC[C@@H](F)CC1)c1cc(Cl)ccc1C(F)(F)F (single isomer, unassigned) [Compound 314, 5-chloro-N-[(2-chloro-3-fluorophenyl)(cis-4-fluoro-1-hydroxycyclohexyl)methyl]-2-(trifluoromethyl)benzamide] |
| 14 nM | O=C(NC(c1cccc(-c2cn[nH]c2)c1)C1(O)CCCC1)c1nccc(C(F)(F)F)c1Cl (centres unmarked) [Compound 17, 3-chloro-N-{(1-hydroxycyclopentyl)[3-(1H-pyrazol-4-yl)phenyl]methyl}-4-(trifluoromethyl)pyridine-2-carboxamide] |
